For the data set, the system named is 4T1.2 (breast cancer). In words: 4T1.2 breast cancer metastasis model. The data set is classed as in vivo, mouse. The note with it: compound 1 combined with anti-PD1 (data not shown). On the procedure:
C57BL/6 or Balb/c Wild-type (WT) mice were purchased from Walter and Eliza Hall Institute for Medical Research or bred in house and maintained at the QIMR Berghofer Medical Research Institute. Mice greater than 8 weeks of age were sex-matched to the appropriate models. In all studies, no mice were excluded based on pre-established criteria and randomization was applied immediately prior to treatment in therapy experiments. Experiments were conducted as approved by the QIMR Berghofer Medical Research Institute Animal Ethics Committee.
Mouse B16F10 (melanoma), MC38 (colon adenocarcinoma) and 4T1.2 (breast cancer) cells were grown in Dulbecco's Modified Eagle Medium (DMEM) supplemented with 10% Fetal Calf Serum (Bovogen), 1% Glutamine (Gibco), and 1% Penicillin/Streptomycin (Gibco). B16F10 and 4T1.2 cells were maintained at 37° C., 5% CO2. MC38 cells were maintained at 37° C., 10% CO2. All cell lines were routinely tested negative for Mycoplasma, but cell line authentication was not routinely performed.
5×10^4 4T1.2 cells were injected into the 4th mammary fat pad in a volume of 50 μl (day 0). On day 12 after injection, primary tumours were surgically removed under isoflurane anesthesia. Mice were injected treated as indicated in figure legends on day 15, 18 and 21 after tumour cell injection. […] For this, macroscopic visible lung metastases were counted. […]

In the case of `CCCCCCCCCCCCCCCC(=O)OCC(CSCC(N)C(=O)N[C@@H](CO)C(=O)NCCOCCOCCOCCOCCOCCOCCOCCOCCOCCOCCOCCOCCC(=O)NCC(N)=O)OC(=O)CCCCCCCCCCCCCCC` (stereo partly shown) [compound 1], the weight loss result was “without affecting weight loss”.

The record behind these values is patent US20230043518A1, “CANCER IMMUNOTHERAPY” (AXELIA ONCOLOGY PTY LTD, priority 2019, published 2023).
